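Interpolation was linear, between the two tested concentrations surrounding the appropriate level; five concentrations were tested over 48 hours in 96-well plates. TGI marks complete inhibition of growth.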 Bounds are passed on as bounds.

Some test systems named below: KM20L2 colon; LOX IMVI melanoma; NCI/ADR-RES ovarian; DMS 114 small cell lung; SR leukemia; NCI-H226 lung; CCRF-CEM leukemia; U251 CNS; SNB-78 CNS; OVCAR-8 ovarian.
Common to all, as to assay: growth of human tumour cells (NCI), 48 h

As to `CC[C@]12C=CCN3CCC4(c5cc([C@@]6(C(=O)OC)CC7CN(CCc8c6[nH]c6ccccc86)CC6CCCCC67)c(OC)cc5N(C)C4[C@](O)(C(=O)OC)C1OC(C)=O)[C@@H]32` (stereo not given in full), the TGI in the test on KM20L2 colon was below 0.01 µM; in the test on LOX IMVI melanoma, 6.46 µM; with NCI/ADR-RES ovarian it was 0.512 µM; in the test with DMS 114 small cell lung, below 0.01 µM; in the test with SR leukemia, above 33.8 µM; with NCI-H226 lung, 2.42 µM. For the same compound, the TGI in the test with CCRF-CEM leukemia is above 20.6 µM; in the test on U251 CNS, below 0.01 µM; with SNB-78 CNS it was 18.8 µM; in the test with OVCAR-8 ovarian it was 0.747 µM.

For `O=C[C@@H](CO)O[C@H](C=O)n1cnc2c(=O)[nH]cnc21`, the TGI with KM20L2 colon came to 2130 µM; in the test on LOX IMVI melanoma, 534 µM; in the test with NCI/ADR-RES ovarian, 1810 µM; with DMS 114 small cell lung, 202 µM; in the test on SR leukemia it was 1210 µM; in the test with NCI-H226 lung, 1780 µM. Besides, the TGI in the test with CCRF-CEM leukemia worked out at 559 µM; with U251 CNS, 2500 µM; with SNB-78 CNS, 2170 µM; in the test with OVCAR-8 ovarian, 2020 µM.

The values above are taken from PubChem BioAssay (NCI).
